According to PubChem BioAssay AID1963875 (Molecular Pharmacology Branch, DTP, NCI, 2024):

System: KRAS-mutant PDC complex spheroid viability
Test: Anticancer human tumor 186277-243-T-J2-PDC patient-derived colon adenocarcinoma cell line growth inhibition [KRAS2]
Settings: for IC50: curve of first compound; for viability, T/C: stronger effect = lower value
How it was run: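 KRAS-mutant tumor cells were grown as spheroids with HUVEC endothelial cells and human MSCs as stroma. Targeted agents were tested alone and with KRAS pathway inhibitors. Doses started at or near clinical Cmax, or 10 microM, descending half-log.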

[1] = second compound 0.1 µM, first compound 0.01 µM
[2] = second compound 0.1 µM, first compound 0.0316 µM
[3] = second compound 0.316 µM, first compound 0.01 µM
[4] = second compound 0.316 µM, first compound 0.0316 µM
[5] = second compound 1 µM, first compound 0.01 µM
[6] = second compound 1 µM, first compound 0.0316 µM
[7] = second compound 3.16 µM, first compound 0.01 µM
[8] = second compound 3.16 µM, first compound 0.0316 µM
[9] = second compound 10 µM, first compound 0.01 µM
[10] = second compound 10 µM, first compound 0.0316 µM
[11] = second compound 0.1 µM, first compound 0.1 µM
[12] = second compound 0.1 µM, first compound 0.316 µM
[13] = second compound 0.1 µM, first compound 1 µM
[14] = second compound 0.1 µM, first compound 3.16 µM
[15] = second compound 0.316 µM, first compound 0.1 µM
[16] = second compound 0.316 µM, first compound 0.316 µM
[17] = second compound 0.316 µM, first compound 1 µM
[18] = second compound 0.316 µM, first compound 3.16 µM
[19] = second compound 1 µM, first compound 0.1 µM
[20] = second compound 1 µM, first compound 0.316 µM
[21] = second compound 1 µM, first compound 1 µM
[22] = second compound 1 µM, first compound 3.16 µM
[23] = second compound 3.16 µM, first compound 0.1 µM
[24] = second compound 3.16 µM, first compound 0.316 µM
[25] = second compound 3.16 µM, first compound 1 µM
[26] = second compound 3.16 µM, first compound 3.16 µM
[27] = second compound 10 µM, first compound 0.1 µM
[28] = second compound 10 µM, first compound 0.316 µM
[29] = second compound 10 µM, first compound 1 µM
[30] = second compound 10 µM, first compound 3.16 µM
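For viability, T/C in this document: viability read after seven days of compound exposure; 100% = DMSO vehicle-treated spheroids so lower means less viable.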

For `CC(=O)Nc1cccc(-n2c(=O)n(C3CC3)c(=O)c3c(Nc4ccc(I)cc4F)n(C)c(=O)c(C)c32)c1` + CNCc1ccccc1-c1csc(C(C)Nc2nc(C)nc3cc(OC)c(OC)cc23)c1, the IC50 (second compound 0.1 µM) was 0.52 nM, the IC50 (second compound 0.316 µM) was 0.302 nM and the IC50 (second compound 1 µM) was 0.245 nM. The IC50 (second compound 3.16 µM) was less than 0.1 nM, the IC50 (second compound 10 µM) was less than 0.1 nM and the viability, T/C (second compound 0.1 µM, first compound 0.0001 µM) was 109%. The viability, T/C (second compound 0.1 µM, first compound 0.000316 µM) was 75.5%, the viability, T/C (second compound 0.1 µM, first compound 0.001 µM) was 16.4% and the viability, T/C (second compound 0.1 µM, first compound 0.00316 µM) was 4.46%. It also gave a viability, T/C [1] of 2.28%, a viability, T/C [2] of 1.31% and a viability, T/C (second compound 0.316 µM, first compound 0.0001 µM) of 103%. For the same molecule, the viability, T/C (second compound 0.316 µM, first compound 0.000316 µM) was 47.9%, the viability, T/C (second compound 0.316 µM, first compound 0.001 µM) was 10.8% and the viability, T/C (second compound 0.316 µM, first compound 0.00316 µM) was 3.37%. It also gave a viability, T/C [3] of 1.77%, a viability, T/C [4] of 1.09% and a viability, T/C (second compound 1 µM, first compound 0.0001 µM) of 115%. The viability, T/C (second compound 1 µM, first compound 0.000316 µM) was 31.3%, the viability, T/C (second compound 1 µM, first compound 0.001 µM) was 6.94% and the viability, T/C (second compound 1 µM, first compound 0.00316 µM) was 1.83%. For the same molecule, the viability, T/C [5] was 1.15%, the viability, T/C [6] was 0.51% and the viability, T/C (second compound 3.16 µM, first compound 0.0001 µM) was 40.6%. The viability, T/C (second compound 3.16 µM, first compound 0.000316 µM) was 0.37%, the viability, T/C (second compound 3.16 µM, first compound 0.001 µM) was 0.04% and the viability, T/C (second compound 3.16 µM, first compound 0.00316 µM) was 0.02%. For the same molecule, the viability, T/C [7] was 0.02%, the viability, T/C [8] was 0.11% and the viability, T/C (second compound 10 µM, first compound 0.0001 µM) was 0.14%. For the same molecule, the viability, T/C (second compound 10 µM, first compound 0.000316 µM) was 0.11%, the viability, T/C (second compound 10 µM, first compound 0.001 µM) was 0.1% and the viability, T/C (second compound 10 µM, first compound 0.00316 µM) was 0.1%. The viability, T/C [9] was 0.11% and the viability, T/C [10] was 0.18%.
`CC(=O)OC12COC1CC(O)C1(C)C(=O)C(O)C3=C(C)C(OC(=O)C(O)C(NC(=O)OC(C)(C)C)c4ccccc4)CC(O)(C(OC(=O)c4ccccc4)C21)C3(C)C` (stereo not given) + COc1cc2nc(C)nc(NC(C)c3cc(N)cc(C(F)(F)F)c3)c2cc1OC1CCOC1 showed an IC50 (second compound 0.1 µM) of less than 10 nM, an IC50 (second compound 0.316 µM) of less than 10 nM and an IC50 (second compound 1 µM) of less than 10 nM. It also gave an IC50 (second compound 3.16 µM) of less than 10 nM, an IC50 (second compound 10 µM) of less than 10 nM and a viability, T/C [1] of 4.45%. It also gave a viability, T/C [2] of 5.2%, a viability, T/C [11] of 2.78% and a viability, T/C [12] of 2.85%. For the same molecule, the viability, T/C [13] was 2.91%, the viability, T/C [14] was 3.62% and the viability, T/C [3] was 4.29%. It also gave a viability, T/C [4] of 3.35%, a viability, T/C [15] of 2.81% and a viability, T/C [16] of 2.36%. It also gave a viability, T/C [17] of 2.72%, a viability, T/C [18] of 2.69% and a viability, T/C [5] of 3.08%. It also gave a viability, T/C [6] of 4.27%, a viability, T/C [19] of 3.44% and a viability, T/C [20] of 3.47%. For the same molecule, the viability, T/C [21] was 3.46%, the viability, T/C [22] was 2.96% and the viability, T/C [7] was 3.01%. The viability, T/C [8] was 2.78%, the viability, T/C [23] was 2.73% and the viability, T/C [24] was 2.51%. The viability, T/C [25] was 2.54%, the viability, T/C [26] was 2.73% and the viability, T/C [9] was 3.2%. The viability, T/C [10] was 3.03%, the viability, T/C [27] was 2.84% and the viability, T/C [28] was 3%. For the same molecule, the viability, T/C [29] was 2.42% and the viability, T/C [30] was 2.82%.
`COc1cc2nccc(Oc3ccc(NC(=O)C4(C(=O)Nc5ccc(F)cc5)CC4)cc3)c2cc1OC` + CC1OCC2(CCN(c3cnc(Sc4ccnc(N)c4Cl)c(N)n3)CC2)C1N was tested, and the IC50 (second compound 0.1 µM) was 1980 nM, the IC50 (second compound 0.316 µM) was 2030 nM and the IC50 (second compound 1 µM) was 1710 nM. For the same molecule, the IC50 (second compound 3.16 µM) was 821 nM, the IC50 (second compound 10 µM) was 284 nM and the viability, T/C [2] was 106%. The viability, T/C [11] was 111%, the viability, T/C [12] was 105% and the viability, T/C [13] was 103%. The viability, T/C [14] was 13.7%, the viability, T/C (second compound 0.1 µM, first compound 10 µM) was 8.67% and the viability, T/C [4] was 115%. The viability, T/C [15] was 98.8%, the viability, T/C [16] was 109% and the viability, T/C [17] was 107%. It also gave a viability, T/C [18] of 14.6%, a viability, T/C (second compound 0.316 µM, first compound 10 µM) of 9.03% and a viability, T/C [6] of 104%. It also gave a viability, T/C [19] of 112%, a viability, T/C [20] of 104% and a viability, T/C [21] of 85.2%. It also gave a viability, T/C [22] of 9.37%, a viability, T/C (second compound 1 µM, first compound 10 µM) of 6.62% and a viability, T/C [8] of 94%. It also gave a viability, T/C [23] of 92.8%, a viability, T/C [24] of 83.7% and a viability, T/C [25] of 43.6%. It also gave a viability, T/C [26] of 5.99%, a viability, T/C (second compound 3.16 µM, first compound 10 µM) of 4.64% and a viability, T/C [10] of 63.5%. The viability, T/C [27] was 60.7%, the viability, T/C [28] was 48.5% and the viability, T/C [29] was 21.8%. For the same molecule, the viability, T/C [30] was 3.73% and the viability, T/C (second compound 10 µM, first compound 10 µM) was 3.26%.
